Experimental data published in patent US20050267055A1, “Agent for improvement of glucose tolerance” (USE-TECHNO CORPORATION, priority 2003, published 2005).

Assay: Glucose tolerance test in a dog after corosolic acid administration
Type: in vivo
Details: dog (beagle), 20 mg/kg of body weight corosolic acid single administration; 75 g grape sugar oral load; tests up to 28 days after administration vs 60 days before
Experimental: (Glucose Tolerance Improving Effect of Corosolic Acid Administration in a Dog)
A dog (beagle) was used as the test animal. 20 mg/kg of body weight of purified corosolic acid extracted from banaba leaves was administered to the animal, and the glucose tolerance improvement effect was evaluated.
The glucose tolerance was evaluated by performing glucose tolerance tests according to the procedure described in (1)-(3) below. A glucose tolerance test was performed 60 days before corosolic acid administration, immediately after corosolic acid administration, and at 7 days, 14 days, 21 days and 28 days after corosolic acid administration. At time points other than immediately after corosolic acid administration, the glucose tolerance test was performed immediately after the same dose of D-sorbitol was orally administered as a placebo instead of corosolic acid. • (1) 75 g of grape sugar is administered orally to the dog. • (2) Blood is collected from the dog's vein at 0 minute, 30 minutes, 60 minutes, 90 minutes, 120 minutes, 180 minutes and 240 minutes after grape sugar administration, and the blood glucose level of the collected blood is measured using GLUTEST SENSOR (trade name, manufactured by SANWA KAKAGU KENKYUSHO CO.,LTD). • (3) The total of 7 blood glucose levels measured above in (2) is represented by ΣBG [mg/dl].

SMILES: C[C@H]1[C@H](C)CC[C@]2(C(=O)O)CC[C@]3(C)C(=CC[C@@H]4[C@@]5(C)C[C@@H](O)[C@H](O)C(C)(C)[C@@H]5CC[C@]43C)[C@H]12 [corosolic acid]
- ΣBG (total of 7 blood glucose levels in glucose tolerance test): lower values for 28 days after corosolic acid adminisration than before corosolic acid adminisration
